The source of these data is ChEMBL document CHEMBL4622931, “Potent dual EGFR/Her4 tyrosine kinase inhibitors containing novel (1,2-dithiolan-4-yl)acetamides” (Bioorg Med Chem Lett, 2020).

One data set deals with SF-268. Description: Cytotoxicity against human SF268 cells assessed as growth inhibition incubated for 48 hrs by SRB assay. The class given is functional. Particulars: SF-268, 48 h. A general note: Sulforhodamine B stains cellular protein and so reports cell mass.
The target in data set [1] is Epidermal growth factor receptor (Homo sapiens, UniProt P00533, EX19DEL). Description: Inhibition of EGFR ex19del mutant (unknown origin) in presence of radiolabelled gammaATP by radioisotope filter binding assay.
The next data set relates to NCI-H226. Description: Cytotoxicity against human NCI-H226 cells assessed as growth inhibition incubated for 48 hrs by SRB assay. The class given is functional. Particulars: NCI-H226, 48 h.
The subject of a further data set is SK-MEL-28. Kind of data set: Cytotoxicity against human SK-MEL-28 cells assessed as growth inhibition incubated for 48 hrs by SRB assay. It is filed as functional. Particulars: SK-MEL-28, 48 h.
A further data set concerns DU-145. Description: Cytotoxicity against human DU145 cells assessed as growth inhibition incubated for 48 hrs by SRB assay. It is filed as functional. Particulars: DU-145, 48 h.
Data set [2] has as its target Epidermal growth factor receptor (Homo sapiens, UniProt P00533, L858R/T790M). Description: Inhibition of EGFR L858R/T790M mutant (unknown origin) in presence of radiolabelled gammaATP by radioisotope filter binding assay.
The nature of data set [3]: Toxicity in NMRI mouse xenografted with human HCT116 cells assessed as toxic signs at 10 mg/kg, ip administered for 14 days and observed on day 14. The class given is organism-based, HCT-116. Particulars: in vivo, 336 h. (A xenograft is tissue or cells of one species grown in another, often human tumour cells in immunodeficient mice.)
Data set [4] concerns the target T1, Receptor tyrosine-protein kinase erbB-2 (Homo sapiens, UniProt P04626).
Description: Inhibition of recombinant human N-terminal His-tagged HER2 (676 to 1255 residues) expressed in baculovirus expression system by competitive binding assay
The nature of data set [5]: Toxicity in NMRI mouse xenografted with human HCT116 cells assessed as weight loss at 10 mg/kg, ip administered for 14 days and observed on day 14. It is filed as organism-based, HCT-116. Particulars: in vivo, 336 h.
Data set [6] can be described thus: Toxicity in NMRI mouse xenografted with human MOLT4 cells assessed as weight loss at 10 mg/kg, ip administered for 14 days and observed on day 14. Particulars: in vivo, 336 h. The class given is organism-based, MOLT-4.
For another data set, the system named is PC-3. Kind of data set: Cytotoxicity against human PC3 cells assessed as growth inhibition incubated for 48 hrs by SRB assay. It is filed as functional. Particulars: PC-3, 48 h.
A further data set deals with HCT-116. Description: Cytotoxicity against human HCT116 cells assessed as growth inhibition incubated for 48 hrs by SRB assay. It is filed as functional. Particulars: HCT-116, 48 h.
Data set [7] concerns the target T2, Epidermal growth factor receptor (Homo sapiens, UniProt P00533, L858R). Kind of data set: Inhibition of recombinant human partial length EGFR L858R mutant (669 to 1011 residues) expressed in bacterial expression system by competitive binding assay.
Data set [8] has as its target T1, Receptor tyrosine-protein kinase erbB-2. Description: Inhibition of HER2 (unknown origin) in presence of radiolabelled gammaATP by radioisotope filter binding assay.
Data set [9] deals with T2, Epidermal growth factor receptor. Kind of data set: Inhibition of recombinant human N-terminal GST-tagged EGFR L858R mutant (669 to 1210 residues) expressed in baculovirus expression system by competitive binding assay.
The subject of data set [10] is MOLT-4. Kind of data set: Antitumor activity against human MOLT4 cells loaded in hollow fibers implanted intraperitoneally in NMRI mouse assessed as reduction in cell viability at 10 mg/kg, ip administered for 14 days by celltiter glo assay. It is filed as functional, organism-based. Background: Cellular ATP, detected with luciferase, serves as a proxy for viable cell number.

The target in data set [11] is T3, Receptor tyrosine-protein kinase erbB-4 (Homo sapiens, UniProt Q15303). Kind of data set: Inhibition of recombinant human wild type partial length HER4 (690 to 994 residues) expressed in bacterial expression system by competitive binding assay.
Data set [12] can be described thus: Toxicity in NMRI mouse xenografted with human MOLT4 cells assessed as toxic signs at 10 mg/kg, ip administered for 14 days and observed on day 14. The class given is organism-based, MOLT-4. Particulars: in vivo, 336 h.
The next data set deals with CCRF-CEM. Kind of data set: Cytotoxicity against human CCRF-CEM cells assessed as growth inhibition incubated for 48 hrs by SRB assay. It is filed as functional.
Data set [13] concerns NCI-H460. Kind of data set: Cytotoxicity against human NCI-H460 cells assessed as growth inhibition incubated for 48 hrs by SRB assay. It is filed as functional. Particulars: NCI-H460, 48 h.
In a further data set the test system is MCF7. Description: Cytotoxicity against human MCF7 cells assessed as growth inhibition incubated for 48 hrs by SRB assay. It is filed as functional. Particulars: MCF7, 48 h.
Data set [14] can be described thus: Toxicity in NMRI mouse xenografted with human NCI-H460 cells assessed as toxic signs at 10 mg/kg, ip administered for 14 days and observed on day 14. The class given is organism-based. Particulars: in vivo, 336 h.
Data set [15] can be described thus: Toxicity in NMRI mouse xenografted with human NCI-H460 cells assessed as weight loss at 10 mg/kg, ip administered for 14 days and observed on day 14. Particulars: in vivo, 336 h. It is filed as organism-based.
In data set [16] the target is T4, Epidermal growth factor receptor (Homo sapiens, UniProt P00533). Kind of data set: Inhibition of recombinant human N-terminal GST-tagged EGFR (669 to 1210 residues) expressed in baculovirus expression system by competitive binding assay.
Data set [17] deals with Receptor tyrosine-protein kinase erbB-3 (Homo sapiens, UniProt P21860). Kind of data set: Inhibition of recombinant human wild type partial length HER3 (684 to 987 residues) expressed in mammalian expression system by competitive binding assay.
The next data set relates to SR. Description: Cytotoxicity against human SR cells assessed as growth inhibition incubated for 48 hrs by SRB assay. It is filed as functional.
Data set [18] deals with T3, Receptor tyrosine-protein kinase erbB-4.
Description: Inhibition of recombinant human N-terminal GST-tagged HER4 (676 to 1308 residues) expressed in baculovirus expression system by competitive binding assay
Data set [19] has as its target T2, Epidermal growth factor receptor. Kind of data set: Inhibition of EGFR L858R mutant (unknown origin) in presence of radiolabelled gammaATP by radioisotope filter binding assay.
Data set [20] has as its system MOLT-4. Description: Cytotoxicity against human MOLT4 cells assessed as growth inhibition incubated for 48 hrs by SRB assay. The class given is functional. Particulars: MOLT-4, 48 h.
In another data set the test system is Hs-578T. Kind of data set: Cytotoxicity against human Hs578T cells assessed as growth inhibition incubated for 48 hrs by SRB assay. It is filed as functional.
A further data set relates to MDA-MB-231. Kind of data set: Cytotoxicity against human MDA-MB-231 cells assessed as growth inhibition incubated for 48 hrs by SRB assay. The class given is functional. Particulars: MDA-MB-231, 48 h.
Data set [21] deals with T3, Receptor tyrosine-protein kinase erbB-4. Kind of data set: Inhibition of HER4 (unknown origin) in presence of radiolabelled gammaATP by radioisotope filter binding assay.
The target of data set [22] is T4, Epidermal growth factor receptor. Description: Inhibition of wild type EGFR (unknown origin) in presence of radiolabelled gammaATP by radioisotope filter binding assay.
The next data set concerns K562. Description: Cytotoxicity against human K562 cells assessed as growth inhibition incubated for 48 hrs by SRB assay. Particulars: K562, 48 h. The class given is functional.
Data set [23] concerns NCI-H460. Kind of data set: Antitumor activity against human NCI-H460 cells loaded in hollow fibers implanted intraperitoneally in NMRI mouse assessed as reduction in cell viability at 10 mg/kg, ip administered for 14 days by celltiter glo assay. It is filed as functional, organism-based.
For a further data set, the system named is MDA-MB-468. Kind of data set: Cytotoxicity against human MDA-MB-468 cells assessed as growth inhibition incubated for 48 hrs by SRB assay. The class given is functional. Particulars: MDA-MB-468, 48 h.
For another data set, the system named is M14. Kind of data set: Cytotoxicity against human M14 cells assessed as growth inhibition incubated for 48 hrs by SRB assay. It is filed as functional. Particulars: M14, 48 h.

Structures are written as SMILES. Activity calls are given as the source filed them. No cut-off for these calls is given here.

T1 sequence (P04626 whole entry): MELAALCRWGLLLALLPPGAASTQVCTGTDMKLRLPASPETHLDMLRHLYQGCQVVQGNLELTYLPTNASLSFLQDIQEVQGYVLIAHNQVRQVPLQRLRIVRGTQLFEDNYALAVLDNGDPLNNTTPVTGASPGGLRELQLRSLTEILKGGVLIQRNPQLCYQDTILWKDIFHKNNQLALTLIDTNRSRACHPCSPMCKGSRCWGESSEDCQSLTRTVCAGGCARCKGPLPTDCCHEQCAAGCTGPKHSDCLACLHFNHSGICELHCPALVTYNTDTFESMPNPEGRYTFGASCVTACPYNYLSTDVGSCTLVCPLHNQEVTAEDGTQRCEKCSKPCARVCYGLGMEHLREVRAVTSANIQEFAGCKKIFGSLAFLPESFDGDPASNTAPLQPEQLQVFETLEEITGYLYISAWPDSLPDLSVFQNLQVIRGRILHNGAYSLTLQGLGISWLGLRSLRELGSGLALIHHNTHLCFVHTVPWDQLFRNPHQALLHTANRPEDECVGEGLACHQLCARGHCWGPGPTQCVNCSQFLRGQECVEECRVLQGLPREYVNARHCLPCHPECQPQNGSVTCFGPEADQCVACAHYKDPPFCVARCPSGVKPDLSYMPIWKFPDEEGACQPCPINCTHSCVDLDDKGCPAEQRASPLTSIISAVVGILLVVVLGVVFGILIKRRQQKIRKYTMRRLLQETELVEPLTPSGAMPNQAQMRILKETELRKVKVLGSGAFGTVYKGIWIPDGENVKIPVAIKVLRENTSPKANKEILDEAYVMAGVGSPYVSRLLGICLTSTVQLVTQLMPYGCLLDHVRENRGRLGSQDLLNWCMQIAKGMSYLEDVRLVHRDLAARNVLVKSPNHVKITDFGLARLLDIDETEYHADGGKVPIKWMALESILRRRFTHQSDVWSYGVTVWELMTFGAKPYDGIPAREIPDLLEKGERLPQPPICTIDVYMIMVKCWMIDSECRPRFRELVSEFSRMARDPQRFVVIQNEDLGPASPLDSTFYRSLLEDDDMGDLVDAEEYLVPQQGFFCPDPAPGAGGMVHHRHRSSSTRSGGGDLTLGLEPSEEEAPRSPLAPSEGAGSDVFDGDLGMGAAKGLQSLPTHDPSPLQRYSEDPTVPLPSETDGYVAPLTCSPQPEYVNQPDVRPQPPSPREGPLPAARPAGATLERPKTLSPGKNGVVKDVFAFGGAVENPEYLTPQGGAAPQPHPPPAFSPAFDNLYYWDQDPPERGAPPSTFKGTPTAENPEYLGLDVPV
T4 sequence (P00533 whole entry, the tested form may be a part): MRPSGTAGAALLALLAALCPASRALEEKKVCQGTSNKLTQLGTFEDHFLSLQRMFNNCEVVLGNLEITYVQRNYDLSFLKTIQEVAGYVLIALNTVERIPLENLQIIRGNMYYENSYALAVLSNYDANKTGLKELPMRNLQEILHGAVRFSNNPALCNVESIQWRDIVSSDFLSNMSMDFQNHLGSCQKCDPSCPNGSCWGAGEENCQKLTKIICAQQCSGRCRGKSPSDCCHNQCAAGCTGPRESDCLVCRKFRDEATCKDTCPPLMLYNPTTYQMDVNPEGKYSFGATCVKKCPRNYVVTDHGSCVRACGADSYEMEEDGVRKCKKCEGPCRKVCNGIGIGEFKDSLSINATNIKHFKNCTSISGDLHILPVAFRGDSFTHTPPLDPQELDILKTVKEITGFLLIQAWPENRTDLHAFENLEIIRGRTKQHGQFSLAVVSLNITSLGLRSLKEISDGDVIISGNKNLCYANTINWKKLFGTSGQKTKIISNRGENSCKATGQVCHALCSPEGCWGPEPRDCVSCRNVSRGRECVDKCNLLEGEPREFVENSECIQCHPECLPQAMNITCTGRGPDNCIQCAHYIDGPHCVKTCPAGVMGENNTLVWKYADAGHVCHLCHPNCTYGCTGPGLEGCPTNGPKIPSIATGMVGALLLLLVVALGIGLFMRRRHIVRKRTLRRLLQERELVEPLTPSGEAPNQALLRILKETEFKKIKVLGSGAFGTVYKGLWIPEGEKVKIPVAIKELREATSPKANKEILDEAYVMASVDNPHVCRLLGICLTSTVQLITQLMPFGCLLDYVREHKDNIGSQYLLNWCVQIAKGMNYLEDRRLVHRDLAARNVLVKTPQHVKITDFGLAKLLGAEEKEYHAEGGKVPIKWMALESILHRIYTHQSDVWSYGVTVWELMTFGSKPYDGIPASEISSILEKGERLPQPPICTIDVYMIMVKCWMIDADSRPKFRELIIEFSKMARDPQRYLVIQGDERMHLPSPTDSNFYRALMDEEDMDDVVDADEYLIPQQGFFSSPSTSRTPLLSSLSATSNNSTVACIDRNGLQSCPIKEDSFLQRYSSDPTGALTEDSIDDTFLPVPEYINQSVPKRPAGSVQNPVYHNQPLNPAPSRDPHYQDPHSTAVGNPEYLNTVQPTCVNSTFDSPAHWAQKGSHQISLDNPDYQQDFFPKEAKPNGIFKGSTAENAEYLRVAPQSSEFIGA
Chain of Epidermal growth factor receptor (Homo sapiens, UniProt P00533, EX19DEL) (P00533 whole entry, looked up, stated change not applied): as the sequence (P00533 whole entry, the tested form may be a part) above
T3 sequence (Q15303 whole entry, the tested form may be a part): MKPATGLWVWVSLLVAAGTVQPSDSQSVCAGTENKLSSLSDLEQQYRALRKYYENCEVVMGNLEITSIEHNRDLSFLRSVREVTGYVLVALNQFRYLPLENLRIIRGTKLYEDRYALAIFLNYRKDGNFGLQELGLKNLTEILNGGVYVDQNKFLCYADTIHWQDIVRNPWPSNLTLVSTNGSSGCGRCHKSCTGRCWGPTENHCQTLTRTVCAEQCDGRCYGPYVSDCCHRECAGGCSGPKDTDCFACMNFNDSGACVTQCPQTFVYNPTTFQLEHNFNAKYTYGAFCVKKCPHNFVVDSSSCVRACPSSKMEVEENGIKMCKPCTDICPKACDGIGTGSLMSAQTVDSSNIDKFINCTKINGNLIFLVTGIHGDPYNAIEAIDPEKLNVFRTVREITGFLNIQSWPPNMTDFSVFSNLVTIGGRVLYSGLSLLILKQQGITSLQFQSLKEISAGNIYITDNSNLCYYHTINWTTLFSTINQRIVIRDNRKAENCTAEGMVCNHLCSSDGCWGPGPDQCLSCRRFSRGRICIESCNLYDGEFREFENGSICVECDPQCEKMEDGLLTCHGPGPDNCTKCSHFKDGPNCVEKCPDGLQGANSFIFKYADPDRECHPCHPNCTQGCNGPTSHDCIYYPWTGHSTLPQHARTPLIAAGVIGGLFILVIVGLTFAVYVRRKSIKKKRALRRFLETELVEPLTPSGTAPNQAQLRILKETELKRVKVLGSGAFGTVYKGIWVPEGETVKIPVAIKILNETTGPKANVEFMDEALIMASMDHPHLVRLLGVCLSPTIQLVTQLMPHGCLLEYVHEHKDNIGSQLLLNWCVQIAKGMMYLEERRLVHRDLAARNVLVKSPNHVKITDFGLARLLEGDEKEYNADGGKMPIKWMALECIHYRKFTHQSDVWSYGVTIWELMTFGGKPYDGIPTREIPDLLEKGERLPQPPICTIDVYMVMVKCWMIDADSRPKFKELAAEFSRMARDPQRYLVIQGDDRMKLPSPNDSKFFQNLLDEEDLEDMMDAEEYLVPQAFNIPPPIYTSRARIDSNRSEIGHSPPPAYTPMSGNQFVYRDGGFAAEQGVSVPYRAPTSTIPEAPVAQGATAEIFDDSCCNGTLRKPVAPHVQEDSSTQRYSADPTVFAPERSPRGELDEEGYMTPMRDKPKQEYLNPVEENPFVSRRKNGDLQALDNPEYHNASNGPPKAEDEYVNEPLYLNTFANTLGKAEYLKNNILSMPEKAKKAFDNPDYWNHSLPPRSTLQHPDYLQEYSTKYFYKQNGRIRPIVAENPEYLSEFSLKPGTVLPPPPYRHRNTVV

For the compound `N#Cc1cnc2cc(OC[C@@H](O)CO)c(NC(=O)CC3CSSC3)cc2c1Nc1ccc(OCc2cccc(F)c2)c(Cl)c1`, the GI50 (in general, the concentration at which growth is held to half of that of the control) in the data set on SF-268 is 83 nM; in the data set with NCI-H226, 198 nM; with SK-MEL-28 it was 63 nM; in the data set with DU-145 it was 134 nM; in the data set on PC-3, 89 nM; in the data set on HCT-116 it was 88 nM. Also, the concentration for 50% growth inhibition (GI50) in the data set with CCRF-CEM was found to be 42 nM; in the data set on NCI-H460 [13] it was 103 nM; in the data set on MCF7, 86 nM; in the data set with SR, 66 nM; in the data set on MOLT-4 [20] it was 74 nM; with Hs-578T it was 105 nM. Also, the GI50 in the data set with MDA-MB-231 came out at 103 nM; in the data set on K562 it was 94 nM; in the data set with MDA-MB-468, 70 nM; in the data set with M14 it was 83 nM. Further, the TGI (usually the concentration at which net growth stops) turned out to be 778 nM in the data set on SF-268; 883 nM in the data set with NCI-H226; 136 nM in the data set on SK-MEL-28; 424 nM in the data set with DU-145; 204 nM with PC-3; 204 nM in the data set on HCT-116. Also, the TGI in the data set on CCRF-CEM came to 146 nM; in the data set on NCI-H460 [13], 263 nM; with MCF7, 182 nM; in the data set on SR it was 246 nM; with MOLT-4 [20], 175 nM; with Hs-578T, 282 nM. For the same compound, the TGI worked out at 237 nM with MDA-MB-231, 208 nM with K562, 155 nM with MDA-MB-468 and 251 nM with M14. The IC50 (commonly the concentration needed to halve the response being measured) is 1990 nM in data set [1]; over 10000 nM in data set [2]; 112 nM in data set [4]; 121 nM in data set [8]; 18.1 nM in data set [9]; 12.3 nM in data set [16]. The IC50 in data set [18] came out at 12.2 nM; in [19], 419 nM; in [21], 0.03 nM; in data set [22], 2.4 nM. In addition, the Activity entry in data set [3], in [5], in [6], in data set [12], in data set [14] and in data set [15] was “Non-Toxic” in each case. The Kd (commonly the constant that tells how readily two partners part at equilibrium) in [7] was determined as 9.2 nM; in data set [11] it was 6 nM; in data set [17], 380 nM. Further, the inhibition entry in the data set on MOLT-4 [10] and in the data set on NCI-H460 [23] was “Active” each time.

As for `N#Cc1cnc2ccc(NC(=O)C3CSSC3)cc2c1Nc1ccc(OCc2cccc(F)c2)c(Cl)c1`, in data set [21], the IC50 amounted to 284 nM.

For the compound `C=CC(=O)Nc1cc2c(Nc3ccc(F)c(Cl)c3)ccnc2cc1OCCC1CC12CCN(C)CC2` (configuration not stated), the IC50 in [21] turned out to be 1.2 nM.

`N#Cc1cnc2cc(OC[C@H](O)CO)c(NC(=O)CC3CSSC3)cc2c1Nc1ccc(OCc2cccc(F)c2)c(Cl)c1`: the concentration for 50% growth inhibition (GI50) in the data set with SF-268 was determined as 404 nM; with NCI-H226, 690 nM; in the data set with SK-MEL-28, 129 nM; in the data set with DU-145, 637 nM; in the data set with PC-3 it was 174 nM; in the data set on HCT-116 it was 98 nM. Also, the GI50 was determined as 112 nM with CCRF-CEM; 128 nM with NCI-H460 [13]; 91 nM with MCF7; 132 nM in the data set on SR; 93 nM in the data set on MOLT-4 [20]; 512 nM in the data set on Hs-578T. The GI50 in the data set on MDA-MB-231 is 208 nM; with K562, 148 nM; in the data set with MDA-MB-468, 120 nM; with M14, 141 nM. In addition, the TGI is 1320 nM in the data set with SF-268; 1830 nM with NCI-H226; 350 nM with SK-MEL-28; 1360 nM in the data set on DU-145; 455 nM with PC-3; 209 nM in the data set with HCT-116. In addition, the TGI was 283 nM in the data set on CCRF-CEM; 312 nM with NCI-H460 [13]; 193 nM in the data set on MCF7; 608 nM in the data set on SR; 209 nM in the data set on MOLT-4 [20]; 1740 nM in the data set on Hs-578T. Further, the TGI came out at 722 nM in the data set with MDA-MB-231, 454 nM in the data set on K562, 385 nM in the data set on MDA-MB-468 and 482 nM in the data set with M14. The half-maximal inhibitory concentration (IC50) in data set [1] turned out to be 1280 nM; in [8], 104 nM; in data set [19], 387 nM; in data set [21], 0.19 nM; in data set [22], 2 nM.

`N#Cc1cnc2cc(OC[C@@H](O)CO)c(NC(=O)C3CSSC3)cc2c1Nc1ccc(OCc2cccc(F)c2)c(Cl)c1`: the IC50 in data set [1] was 204 nM; in [2], over 10000 nM; in data set [19] it was 51 nM; in [21], 0.45 nM; in data set [22], 1.5 nM.
